Source: patent US20050025809A1, “Poly-4-hydroxybutyrate matrices for sustained drug delivery” (Tepha, Inc., priority 2003, published 2005)
Read-outs that look alike come from different tables or passages of the source.

Tests used:
[1] = Drug release from PHA3444 rods in PBS; type: physicochemical; settings: PHA3444-34%:drug 2:1 rods
Description: The paste was then introduced into a mold measuring 150×5×5 mm, and left to dry at ambient temperature.

[2] = PHA4400 loaded 10:1, PBS pH 7.4, 37° C.

average cumulative release (PHA4400:drug 2:1 rods, PBS pH 7.4, 37° C., at 11 days): ~9%
burst of release [2]: no burst
total release (PHA4400 loaded 10:1, in fifteen days): 17%
burst of release [1]: No burst of release was observed
average cumulative release ([1]; PBS pH 7.4, 37° C., at 17 days): ~23%
SMILES: CN(C)[C@@H]1C(O)=C(C(N)=O)C(=O)[C@@]2(O)C(O)=C3C(=O)c4c(O)cccc4[C@@](C)(O)[C@H]3C[C@@H]12 [TCN, Tetracycline (neutral)]
release order [2]: almost perfect zero order release after the first hour
